The values below come from PubChem BioAssay (NCI).

Common to all, as to experiment: NCI anticancer screen, dose series, 48 h
In experiment [1] the test system is K-562 leukemia.
The subject of experiment [2] is SF-268 CNS.
The subject of experiment [3] is HT29 colon.
The test system of experiment [4] is U251 CNS.
Experiment [5] concerns SK-OV-3 ovarian.
The test system of experiment [6] is PC-3 prostate.
Experiment [7] has as its system EKVX NSCLC.
Experiment [8] concerns NCI-H460 lung.
The test system of experiment [9] is MDA-N.
The test system of experiment [10] is SN12C renal.
Experiment [11] concerns OVCAR-5 ovarian.
In experiment [12] the test system is DU-145 prostate.
The test system of experiment [13] is SF-539 CNS.
Experiment [14] relates to KM12 colon.
For experiment [15], the system named is NCI-H23 lung.
For experiment [16], the system named is HS 578T breast.
The subject of experiment [17] is HCC-2998 colon.
The test system of experiment [18] is MCF7 breast.
Experiment [19] has as its system MDA-MB-231 breast.

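All cell lines were grown in 96-well plates and treated with compound for 48 hours. TGI is the concentration that stops growth completely.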

Regarding `CON(C)C(=O)C(C)NC(=O)OC(C)(C)C` (configuration not stated), the TGI in experiment [1], in experiment [2], in experiment [3], in [4], in [5] and in experiment [6] was greater than 100 µM each time. Besides, the TGI in experiment [7], in experiment [8], in experiment [9], in experiment [10], in experiment [11] and in experiment [12] was greater than 100 µM in each case. In addition, the TGI in [13], in experiment [14], in experiment [15], in experiment [16], in experiment [17] and in [18] was greater than 100 µM in each case.

Take `O=C(Nc1ccc(Cl)c(C(F)(F)F)c1)C(=O)c1c(O)c2ccccc2oc1=O`: the TGI in experiment [1], in experiment [2], in experiment [19], in experiment [3], in experiment [4] and in experiment [5] was greater than 100 µM each time. For the same molecule, the TGI in experiment [6], in [7], in [8], in [9], in [10] and in [11] was greater than 100 µM each time. Besides, the TGI in experiment [13], in experiment [14], in [15], in [16], in [17] and in experiment [18] was greater than 100 µM each time.

On to `CCOC(=O)C(C)(Cc1ccc(O)cn1)NC(=O)c1ccccc1` (configuration not stated), for which the TGI in experiment [1], in [2], in experiment [19], in experiment [3], in [4] and in experiment [5] was greater than 100 µM each time. For the same molecule, the TGI in experiment [6], in [7], in experiment [8], in [9], in experiment [11] and in [12] was greater than 100 µM throughout. Besides, the TGI in experiment [13], in [14], in experiment [15], in experiment [16] and in experiment [17] was greater than 100 µM each time.

As to `COC(=O)[C@]1(C)[C@H]2C[C@H]3O[C@H]4[C@H](O)[C@@H](O)OC(CC(O)C(C5=CC(=O)OC5)C(C5=CC(=O)OC5)C(O)CC56CCCCC7[C@@H](C)[C@H](C[C@H]8[C@](C)(C(=O)OC)[C@H](O)CC[C@]78C)O[C@H]([C@@H](O)[C@H](O)O5)[C@H]6O)(CCCCC([C@@H]3C)[C@]2(C)CC[C@@H]1O)[C@H]4O` (some centres not stated), the TGI in experiment [1] came to 1.73 µM; in experiment [2], 0.212 µM; in [19], 1.89 µM; in experiment [3], 0.825 µM; in experiment [4], 1.09 µM; in experiment [5], 0.735 µM. Further, the TGI in experiment [6] amounted to 0.449 µM; in [7], 0.224 µM; in experiment [8], 0.014 µM; in experiment [9], 0.786 µM; in [10] it was 0.159 µM; in experiment [11] it was 3.14 µM. In addition, the TGI in experiment [12] was found to be 0.219 µM; in [13], 0.321 µM; in experiment [14], 1.97 µM; in experiment [15], 0.318 µM; in experiment [17] it was 2.94 µM; in experiment [18] it was 1.58 µM.

On to `CCCCOCCOCCOC1=C(Cl)C(=O)c2c(O)ccc(O)c2C1=O`, for which the TGI in experiment [2] worked out at 2.11 µM; in experiment [19], 1.32 µM; in experiment [3] it was 1.25 µM; in experiment [4], 6.72 µM; in [5] it was 14.8 µM; in [6], 3.19 µM. Further, the TGI in experiment [7] worked out at 6.96 µM; in experiment [8], 4.4 µM; in experiment [9], 2.03 µM; in [10], 2.96 µM; in experiment [11], 5.33 µM; in experiment [12] it was 3.16 µM. In addition, the TGI in [13] came out at 2.84 µM; in experiment [14] it was 3.6 µM; in experiment [15] it was 2.92 µM; in [16] it was 5.86 µM; in experiment [17] it was 4.79 µM.

As to `C/C(=N\Nc1nc2ccccc2n1C)c1ccc2ccccc2n1`, the TGI in experiment [1] was 10.6 µM; in experiment [2], 19.2 µM; in experiment [19], 28.8 µM; in experiment [3], 18.3 µM; in experiment [4] it was greater than 43.6 µM; in experiment [5], greater than 100 µM. In addition, the TGI in experiment [7] turned out to be 4.3 µM; in [8] it was 32.1 µM; in experiment [9], 37.7 µM; in [10] it was 16.2 µM; in experiment [11], 11 µM; in experiment [12], 14.5 µM. The TGI in [13] is greater than 34.3 µM; in [14], 43.5 µM; in [15], 31 µM; in experiment [16], 63.8 µM; in experiment [17], 0.9 µM; in experiment [18] it was 27.4 µM.

Turning to `Cc1cc(OC(=O)Nc2ccc(Cl)cc2)ccc1C(=S)Nc1ccccc1`, the TGI in experiment [1], in experiment [2], in [3], in experiment [4], in [5] and in [6] was greater than 100 µM each time. Besides, the TGI in [7], in [8], in [9], in [10], in experiment [11] and in experiment [13] was greater than 100 µM each time. The TGI in experiment [14], in experiment [16], in experiment [17] and in experiment [18] was greater than 100 µM in each case.
